# Laboratory results as given in a melting point compilation (Tetko et al.; mined from patent text by program, amines drawn as free bases though some values may be those of a salt).
row,Compound,melting point [°C]
1,O=S(=O)(Cl)c1ccc(CCc2ccccc2)cc1,90 to 95
2,C[C@@H]1C[C@H](C)CN(S(=O)(=O)c2ccc(Cl)c(C(=O)NCC(=O)O)c2)C1,190 to 192
3,CCCOCCOc1ccc(-c2ccc3c(c2)C=C(C(=O)O)CCN3CCCOCC)cc1,98 to 100
4,COC(CNC1=Nc2ccccc2Nc2ccccc21)OC,181 to 182
5,Cc1c(-c2ccccc2)oc2c(C(=O)NCCCN3CCN(c4cccc5c4OCC5)CC3)cccc2c1=O,94 to 95
6,CC(C)(C)SN1C(=O)NC(=O)C1=O,150 to 152
7,Cc1ccc(NC(=O)OCC(C)C)cc1Nc1ncc(-c2cccnc2)o1,186
8,CCCCC(=O)c1c(-c2ccc3cc(OCC(=O)OCC)ccc3c2)oc2ccc(Cl)cc12,80 to 83
9,N#Cc1c(N2CCc3ccccc3CC2)nc(C2CC2)n(CC(F)(F)F)c1=O,116 to 118
10,O=C(CCl)N1CCSC1COc1ccccc1O (stereo not drawn),89 to 91
11,O=S(=O)(N[C@@H]1c2ccccc2CCC[C@H]1O)c1ccccc1 (relative stereo),128
12,CC1CCCCC1OC(=O)c1cc(NCSc2ccccc2)ccc1Cl (stereo not drawn),143 to 144
13,O=C1NCCN1c1nc(-c2ccc(Br)cc2)cs1,230 to 233
14,Oc1ccc([C@@H]2CCc3cc(O)ccc3[C@@H]2Cn2ccnc2)cc1 (relative stereo),238
15,CCCN(CCN1CCN(c2ccc3[nH]ccc3c2)CC1)C1CCc2ccc(O)cc2C1 (stereo not drawn),179 to 183
16,CNc1ncccc1C(=O)Nc1ccc2c(c1)-c1c(c(C(N)=O)nn1-c1ccc3c(c1)OCO3)CC2,273 to 275
17,Cc1nc(N2CCN(c3ccc(F)cc3)CC2)c(C#N)nc1-c1ccccc1,117 to 120
18,O=C(c1ccc(-c2cc[nH]n2)cc1)N1Cc2cccn2Cc2ccccc21,219 to 221
19,O=[N+]([O-])c1cccc(C=NC2CCOc3ccccc32)c1 (stereo not drawn),117 to 118
20,CSc1ccc(-n2cnc3ccc(-c4nnc(CCc5cccc(C(F)(F)F)c5)o4)cc32)cc1,167 to 168
21,C[C@@H](N[C@@H](CC(=O)N1CCn2c(nnc2C(F)(F)F)C1)Cc1cc(F)c(F)cc1F)c1ccccc1,128
22,COC(=O)c1ccc(OCCNC(=O)C2Cc3ccccc3N2S(=O)(=O)c2ccc(-c3ccc(F)cc3)cc2)cc1Cl (stereo not drawn),70 to 79
23,CC(C)(C)C1(C(F)n2cncn2)CO1 (stereo not drawn),72 to 74
24,O=C(O)CCCOc1cccc(CN2CCCCC2)c1,73 to 77
25,CCOCc1nc2c(N)nc3c(c2n1CCCCCS(N)(=O)=O)CCCC3,203 to 205

row,Compound,melting point [°C]
1,COCC1CC2CCC13CN(CC1CC1)CCC31c3cccc(O)c3OC21 (stereo not drawn),128 to 129
2,Cc1cc(SCN(O)CSc2cc(C)c(O)c(C(C)(C)C)c2)cc(C(C)(C)C)c1O,115 to 118
3,NC(=O)c1[nH]c2ccc(Cl)cc2c1S(=O)(=O)c1cccc(Cl)c1,272 to 273
4,Cc1c(C)c(N2CCN(C(=O)OC(C)(C)C)CC2)c(C)c2c1OC(C)(C)C2N1CCCC1 (stereo not drawn),127 to 128
5,CC1Cc2ccc([N+](=O)[O-])cc2C=N1 (stereo not drawn),110 to 112
6,COc1ccc(C(=O)c2ccccc2)cc1OCCCN1CCC(c2noc3cc(F)ccc23)CC1,140 to 141
7,CNCCOc1ccc(C2=C(c3ccccc3)CCCc3cc(O)ccc32)cc1,184 to 187
8,Cc1c(-c2ccccc2)oc2c(C=CC(=O)O)cccc2c1=O,226 to 229
9,CC1COC2(CCN(C(=O)C(Cl)Cl)CC2)O1 (stereo not drawn),115
10,CC(C)c1ccc2c(c1)c(SCC1CC1)c(CC(C)(C)C(N)=O)n2Cc1ccc(Cl)cc1,137 to 138
11,O=C(NC(C(=O)O)c1ccc2c(c1)CCO2)OCc1ccccc1 (stereo not drawn),121 to 123
12,O=[N+]([O-])c1ccc(-c2cc(C(F)(F)C(F)(F)C(F)(F)F)nc(-c3ccc(C(F)(F)F)cc3)n2)cc1,191
13,Cn1c(C2CC2)nc2c1CCCC2=O,108
14,COc1cc2[nH]c(=O)[nH]c(=O)c2cc1Cl,356 to 358
15,CCSc1cc(C)nc(SCC)c1NC(=O)CCCCSc1nc2cccc(C(F)(F)F)c2o1,155 to 156
16,OC(Cc1ccccc1Cl)(Cn1cncn1)C1(Cl)CC1 (stereo not drawn),107
17,CCOC(=O)/C(=N\OC1CCCC1)c1csc(N)n1,136 to 138
18,CCOC(=O)C1C(=O)CC(C)(O)C(C(=O)OCC)C1c1cccc2oc3c(c12)CCCC3 (stereo not drawn),155 to 157
19,CCC(CC)Nc1c([N+](=O)[O-])cc(C(C)C)c(C=CN(C)C)c1[N+](=O)[O-],88 to 89.5
20,N#CCCNC(=O)c1cccc(-c2cccc3nn(Cc4ccc(F)cc4)cc23)c1,133 to 134
21,CCC(C)OC1OC(C(O)N(CC(C)C)C(=O)N(CCCl)N=O)C(O)C1O (stereo not drawn),80 to 82
22,COc1ccccc1Oc1c(NS(=O)(=O)c2ccc(C(C)(C)C)cc2)nc(NCCN(C)C)nc1OCCOC1CCCCO1 (stereo not drawn),82 to 86
23,CC1(C)Oc2c(ccc3oc(C(=O)O)cc(=O)c23)-c2cc(Cl)ccc21,262 to 264
24,CCNC(=O)N1C[C@@H](c2c[nH]c3ccccc23)[C@H](c2cn3c4c(cccc24)CCC3)C1,278 to 279
25,Cc1cccc2c1C=C(C(=O)O)C2C (stereo not drawn),190 to 193

row,Compound,melting point [°C]
1,COCn1ccnc1C(O)(c1ccccc1)c1ccccc1C(C)(C)C (stereo not drawn),149 to 150
2,O=C(Nc1ccc(O)cc1O)c1cc(Cl)c(O)c(Cl)c1,235 to 237
3,O=C(NC1(C(=O)O)CC1)OCCOC(=O)C1CCCCC1,124 to 125
4,CN(C)C=NC(=O)C=Cc1ccccc1,91 to 93
5,COc1cc(Nc2ncc(-c3ccccc3N(C)C(=O)CN3CCOCC3)o2)ccc1-c1cnco1,179 to 181
6,O=C(O)[C@H]1C[C@@H](O)CN1C(=O)Nc1ccc(Cl)cc1,132 to 134
7,O=C(CCCCCCOc1ccc(-c2ccccc2)cc1)NO,147 to 149
8,FC(F)(F)Sc1c(-c2ccc(Cl)cc2)[nH]c(C(F)(F)F)c1Br,87 to 88.5
9,Cc1c(C(=O)Cl)ccc2c1C(=O)N(C)S2(=O)=O,149 to 150
10,CON=C(C(=O)O)c1nc(NC=O)ccc1Cl,151 to 154
11,Cc1ccc(Oc2ccc(-n3cccc3)cc2)c(O)c1,95 to 96
12,Cc1cccc(-c2nc(N)sc2-c2ccnc(-c3ccc(OCc4cn(C)cn4)cc3)c2)n1,226 to 228
13,COc1cc2c(cc1OC)N(C(=O)OCc1ccccc1)C(C)C(=CN)C2=O (stereo not drawn),143 to 150
14,NC(=O)c1ccc(NC2CCN(Cc3ccccc3)CC2)cc1,192 to 193
15,COC(=O)c1cc2c(cn1)[nH]c1ccc(Oc3ccc([N+](=O)[O-])cn3)cc12,150 to 155
16,O=C(Nc1ccncn1)NN1CC=CCC1,188
17,COC(=O)NNC(C)=S,99 to 100
18,CCCCCCCC(=O)c1ccc(OC(C)=O)c(C(=O)O)c1,130
19,O=c1c(Cc2ccccc2)c(-c2ncco2)n(-c2ccccc2)c2cc(Cl)ccc12,219 to 220
20,CN1C(=O)CC[C@]2(C)c3ccc(-c4ccc(C(F)(F)F)cc4F)cc3CC[C@@H]12,72 to 79
21,COc1cc(/C=C/C(=O)Nc2ccc(Br)cc2)ccc1F,163 to 165
22,CC(C)(C)c1ccc(-c2ccc(C(C)(C)C)c(O)c2)cc1,86 to 87
23,CC1(C)CC(=O)C(C(=O)Nc2cc(F)cc(F)c2)C(=O)C1F (stereo not drawn),131 to 132
24,Cc1cc(C)n(Cc2ccccc2Cl)c(=O)c1C#N,243 to 245
25,CC(C)[C@H](OCc1ccccc1)[C@H]1[C@H]([N+](=O)[O-])[C@H](c2ccccc2)N[C@@H]1C(=O)NCC(=O)O,71 to 72

row,Compound,melting point [°C]
1,O=C(O)CC(c1ccccc1)N1CC(NC(=O)C(=NO)c2ccccc2)C1=O (stereo not drawn),157 to 158
2,CCN(CC)CCOc1ccc(NC(=O)C#Cc2cccnc2)cc1Cl,118 to 120
3,O=C(c1ccccc1)C(Cl)(Cl)C1CCCCC1,92.5 to 94
4,O=C(N[C@@H](Cc1ccc(OCc2ccccc2)cc1)C(=O)O)c1cn2cc(/C=C/c3ccc(Cl)cc3)ccc2n1,267 to 270
5,CC#CCc1c(C)nc2cc(C)nn2c1N,215 to 219
6,COc1cc(OC)c(C23CC4CC(CC(C4)C2)C3)cc1C(=O)Oc1ccc(C(=O)O)cc1,236 to 238
7,COc1ccc(C(CC2=NN(C)C(=O)C2)c2ccccc2)cc1OC1CCCC1 (stereo not drawn),105 to 108
8,COc1ccc(N2CCN(c3c(C)c(C)c4c(c3C)CC(C)(COC=O)O4)CC2)cc1 (stereo not drawn),120 to 124
9,C#Cc1cccc(Nc2ncnc3[nH]cc(-c4ccc(C)cc4)c23)c1,245 to 247
10,CC(C)n1cnc2c(NCc3ccc(O)cc3O)nc(NC[C@@H](C)O)nc21,189 to 191
11,O=C(c1sc(-c2nc3ccccc3[nH]2)nc1-c1ccco1)C1CCOCC1,250 to 251
12,CC(=O)Nc1cc2c(cc1Oc1ccc(F)cc1F)CCC2c1ccccc1 (stereo not drawn),117
13,CN1C(=O)C2(COc3cc4c(cc32)OCCO4)c2c(C(=O)NCc3ccccn3)cccc21 (stereo not drawn),214 to 215
14,N#CC1(c2ccccc2Oc2ccc(Cl)cc2)CCNCC1,128 to 130
15,CCc1cc(SCc2cccc3sc(-c4ccc(C(F)(F)F)cc4)nc23)ccc1OCC(=O)O,89 to 92
16,CN1CCN(C(=O)C(c2ccc(Cl)cc2)c2c(Cl)cc(-n3ncc(=O)[nH]c3=O)cc2Cl)CC1 (stereo not drawn),262
17,CCCN(CCC)c1ccc(S(=O)(=O)NCCCCC(=O)O)cc1,95 to 98
18,CCn1c2ccccc2c2[nH]c(=O)c3nccn3c21,315
19,CC1(NC(=O)CN2C(=O)c3ccccc3C2=O)CCCCCC1,190
20,CC1(C)C(=O)Nc2ccc(-c3cccc(C#N)c3)cc21,200 to 202
21,CC1(C)Oc2ccc(C#N)cc2[C@@H](NC2=C(Cl)C(=O)CC2)[C@@H]1O (relative stereo),288 to 289
22,O=C(NCCNCc1cc2cc(O)ccc2o1)C12CC3CC(CC(C3)C1)C2,140 to 143
23,O=C(NC(=O)c1ccccc1Cl)Nc1cc(C(F)(F)F)c(Br)cc1Br,191
